Assay results taken from article PMC12169104, “Towards the development of supramolecular self-associating amphiphiles as antibiofilm agents against Pseudomonas aeruginosa and Candida albicans biofilms” (Journal of Materials Chemistry. B, 2025).
“And” between values parts separate entries of the source, which are not always exact repeats. Identical values can stand only once. Marks after values point to notes of the source that are not given here.

Legend:
[1] = Quantitative 1H NMR spectroscopy (higher order self-association); type: physicochemical; details: D2O:EtOH 19:1, 2.78 mM, 298 K; proportion of compound to become NMR silent
[2] = 1H NMR DOSY, hydrodynamic diameter of SSA anion; type: physicochemical; details: DMSO-d6/0.5 % H2O, 298 K
Excerpt: The self-associative properties of SSAs 1–5, and co-formulations a–j, were studied using previously published methodologies, the results of which are summarised in Table 1.[44,45] Initially, we quantified the strength of homogeneous SSA anion self-association events, to confirm the effect of the squaramide – (thio)urea substitution. […] Complimentary ^1H NMR DOSY experiments conducted in DMSO-d6 0.5% H2O solutions at 298 K confirmed the SSA anion and cation components to diffuse at different rates, providing supporting evidence towards the lack of any strong ion pairing interactions between the SSA anionic and cationic components under these experimental conditions. […] The formation of SSA anionic dimers has also been shown in the solid state through single crystal X-ray diffraction experiments.[42,43,46] […] Here the SSA anion dimer is stabilised through the formation of four intermolecular squaramide-anion hydrogen bonds. Proton NMR spectroscopy dilution study data, obtained from a DMSO-d6 0.5% H2O solution, were then fitted to both the EK (the equal K single component linear self-associative or dimerization model) and CoEK (the cooperative equal K single component linear self-associative or dimerization model) self-association models using Bindfit v0.5.[47,48] […] The dimerization constants calculated confirm that substitution of the sulfonate ion (1 and 3) for the carboxylate ion (2) increase Kdim by approximately 50-fold. However, substituting the thiourea (2) for the squaramide (5) functionality increases the Kdim by a further 70-fold. Therefore, confirming our initial hypothesis, that incorporating the squaramide residue within the SSA anion structure would increase the strength of SSA anion self-association events.

[3] = Dynamic light scattering (DLS) of SSA aggregates; type: physicochemical; details: for Peak 1 (nm) / Peak 2 (nm) / Peak 3 (nm): DLS average intensity particle size distribution; for Peak 1 (nm) / Peak 2 (nm) / Peak 3 (nm) / PDI: EtOH:H2O 1:19; for dH (nm): DLS intensity distribution peak maxima, H2O:EtOH 19:1, 2.78 mM, 298 K, after annealing
Excerpt: DLS studies: All vials used for preparing the samples were clean and dry. All solvents used were filtered to remove any particulates that may interfere with the results obtained. Samples of differing concentrations were obtained through serial dilution of a concentrated solution. All samples underwent an annealing process, in which they were heated to 313 K before being allowed to cool to 298 K to allow each sample to reach a thermodynamic minimum. […]

[4] = Membrane permeability and adhesion assay (1H CPMG NMR; PF and MAF); details: SSA anion(s), 200 μM, 298 K; for MAF (membrane adhesion factor): error ±0.05 unless stated, MAF < 1 suggests adhesion; for PF (membrane permeation factor): error ±0.1 unless stated, PF > 1 suggests permeable
Excerpt: Finally, in line with our previous work, we moved to characterise the membrane adhesion and permeation events of 1–5 and co-formulations a–j with PE : PG 1 : 1 synthetic phospholipid vesicles.[53] This vesicle composition was prioritised for further analysis as this composition acts as a model for an AMR resistant strain of the ESKAPE pathogen P. aeruginosa,[54,55] categorised as high priority by the WHO.[33] As summarised in Table 4, membrane permeation (PF) and membrane adhesion factors (MAF) for the SSA anionic components were calculated through the use of ^1H CPMG NMR spectroscopy experiments, using vesicles produced by extrusion through a 1000 nm polycarbonate membrane.
Here the lower the MAF, the stronger the adhesion of the molecule to the surface of the phospholipid membrane. […] A PF value of 1 or above provides evidence of SSA permeation. The greater this value above 1, the greater the membrane permeation potential of a compound. […]
Membrane permeability and adhesion assay, determining membrane adhesion factors (MAF) and permeation factors (PF): Lipid vesicles of DOPE and PG, in a 1:1 ratio by weight were prepared as described in ‘preparation of vesicles’ with one alteration. Here vesicles were extruded 21 times through a 1000 nm polycarbonate membrane. NMR samples were prepared containing: SSA ( 200 µM), 95% HEPES buffer (HEPES (10 mM), NaCl (10 mM)) and 5% D 2O, and sodium trimethylsilylpropanesulfonate - DSS (1 µM). In order to calculate the PF and MAF the paramagnetic relaxation enhancement agent (PRE), gadodiamide (1 mM) was added to the NMR mixture. Where lipid vesicles were present in the NMR mixture, vesi cles were added at a concentration of 0.1 mg/mL.
All 1H CPMG NMR spectra were collected with a spin -lock time of 150 mS on a Bruker Avance III spectrometer equipped with a cold probe at a proton frequency of 600 MHz and recorded at 298 K.
Peak intensities were measured using MestReNova (Mestrelab Research). The MAF and PF were determined using previously published method. 3 For individual SSAs, MAF and PF were calculated using all aromatic CH resonances. For SSA co -formulations an average MAF and PF were calculated using all aromatic CH resonances. For individual components of the SSA co -formulations, the resonances for the different SSA anions were treated independently of one another.

[5] = Tensiometry: critical aggregation concentration and surface tension; type: physicochemical; details: H2O:EtOH 19:1, approx. 291 K; for CAC (mM) / CAC: surface tension measurements, bounds represent the limit of solubility; for Surface tension at limit of solubility: footnote c, CAC not reached
[6] = polydispersity index of DLS dH, 2.78 mM

Structure (SMILES)	Quantitative 1H NMR (%) Anion [1] [%]	Quantitative 1H NMR (%) Cation [1] [%]	dH (nm) of SSA anion, 1H NMR DOSY [2] [nm]	Peak 1 (nm) ([3]; 0.28 mM)	Peak 2 (nm) ([3]; 0.28 mM)	Peak 3 (nm) ([3]; 0.28 mM)	Peak 2 (nm) ([3]; 2.78 mM)	dH (nm) [3]	PDI ([3]; DLS, 0.28 mM)	PDI [3, 6]	MAF (membrane adhesion factor) [4]	PF (membrane permeation factor) [4]	CAC (mM) [5]	Surface tension at limit of solubility [5]	Peak 1 (nm) ([3]; 2.78 mM)	CAC [5] [mM]
O=S(=O)(O)CCCNC(=S)Nc1ccc(C(F)(F)F)cc1 [SSA 1]	33	31	1.50	0.23	100.61	747.99	184.36	184.36 nm and 184 nm	0.0602	0.0315	0.94	1.01	–	–	–	–
O=C(O)CNC(=S)Nc1ccc(C(F)(F)F)cc1 [SSA 2]	43	39	1.42	–	139.08	–	142.73	142 nm and 143 nm	0.0160	0.0350	0.88	0.85	>10.0 ^b mM	41 ^c mN m^−1	–	–
Cc1ccc2nc(-c3ccc(NC(=O)NCS(=O)(=O)O)cc3)sc2c1 [SSA 3]	37	37	1.64	0.43	56.01	462.06	672.27	672.27 nm and 672 nm	0.0863	0.0658	0.00	0.00	–	–	51.65	–
O=c1c(NCCCS(=O)(=O)O)c(Nc2ccc(C(F)(F)F)cc2)c1=O [SSA 4]	44	39	1.65	–	–	–	162.46	162.46 nm and 162 nm	0.0452	0.0388	0.38	1.48 ^a	>7.5 ^b mM	42 ^c mN m^−1	–	< 7.5
O=C(O)CNc1c(Nc2ccc(C(F)(F)F)cc2)c(=O)c1=O [SSA 5]	33	37	1.61	–	125.90	747.97	160.53	174 nm	0.0547	0.0614	0.38	0.67	>2.8 ^b mM	43 ^c mN m^−1	–	< 2.78
